Reference: patent US8765779B2, “Tricyclic derivatives and their pharmaceutical use and compositions” (Cephalon, Inc., priority 2009, dated 2014)

Columns and labels:
rats [1] = conditions: compared to an untreated control group; cited from earlier work
rats [2] = conditions: rat model of tonic, persistent pain; cited from earlier work
human 5-HT6 receptor = biological target: T1, human 5-HT6 receptor (Homo sapiens, UniProt P50406); experiment: Human 5-HT6 Receptor Binding Assay ([3H]LSD displacement, scintillation beads); conditions: membranes of CHO-K1 cells with recombinant human 5-HT6, 4 nM [3H]LSD; Table 1, class symbols; read-out: h5-HT6 (Ki)
T1 construct: host or cells: CHO-K1 cells, stably transfected; membranes prepared in house
T1 sequence (P50406 whole entry): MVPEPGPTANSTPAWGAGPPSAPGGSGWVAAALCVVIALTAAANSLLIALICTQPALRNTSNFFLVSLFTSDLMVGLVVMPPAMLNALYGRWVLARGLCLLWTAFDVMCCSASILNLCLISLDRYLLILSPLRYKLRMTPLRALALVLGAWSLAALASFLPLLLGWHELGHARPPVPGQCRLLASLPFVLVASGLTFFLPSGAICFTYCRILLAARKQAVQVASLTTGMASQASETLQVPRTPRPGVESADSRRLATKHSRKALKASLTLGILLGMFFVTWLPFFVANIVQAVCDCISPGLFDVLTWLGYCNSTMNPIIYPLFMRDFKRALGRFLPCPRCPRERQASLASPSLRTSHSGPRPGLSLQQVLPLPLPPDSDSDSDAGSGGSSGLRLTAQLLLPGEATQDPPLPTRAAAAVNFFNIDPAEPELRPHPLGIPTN

Row | SMILES | melting point | Ki (human 5-HT6 receptor) | non-REM (NREM) sleep (rats [1]) | antinociceptive effect (rats [2])
1 | CN1CCN(c2cccc3c(S(=O)(=O)c4ccccc4)c[nH]c23)CC1 [RO 4368554] |  |  | increase in non-REM (non-rapid eye movement or NREM) sleep | 
2 | COc1ccc(NS(=O)(=O)c2sc3ccc(Cl)cc3c2C)cc1N1CCNCC1 [SB-271046] |  |  |  | short-lived, antinociceptive effect
3 | CC(C)Oc1cccc(S(=O)(=O)c2ccc3c(c2)C2(C)CCNCC2O3)c1 (stereo not drawn) [Example 98] | 162 to 164 °C | < 500 nM |  | 
4 | O=S(=O)(c1ccc2c(c1)OC1CNCCC21)c1cccc2nsnc12 (stereo not drawn) [Example 67] | 195 to 196 °C | < 500 nM |  | 
5 | CCNC(=O)Oc1cccc(S(=O)(=O)c2ccc3c(c2)OC2CNCCC32)c1 (stereo not drawn) [Example 628, 3-[1,2,3,4,4a,9a-Hexahydro[1]benzofuro[2,3-c]pyridin-7-ylsulfonyl]phenyl ethylcarbamate] | 217 to 219 °C | < 500 nM |  | 
6 | CC(=O)Nc1ccc(S(=O)(=O)c2ccc3c(c2)C2(C)CCNCC2O3)cc1 (stereo not drawn) [Example 96] | 212 to 214 °C | > 1000 nM |  | 
7 | CC12CCNCC1Oc1ccc(S(=O)(=O)c3ccc(F)cc3)cc12 (stereo not drawn) [Example 92] | 163 to 165 °C | > 1000 nM |  | 
8 | O=S(=O)(c1cccc(F)c1)c1ccc2c3c(oc2c1)C1(CCOCC1F)NCC3 (single isomer, unassigned) [Example 55, 3′-Fluoro-7-[(3-fluorophenyl)sulfonyl]-2′,3,3′,4,5′,6′-hexahydro-2H-spiro[1-benzofuro[2,3-c]pyridine-1,4′-pyran]] | 251 to 260 °C | < 500 nM |  | 
9 | CC12CCNCC1Oc1ccc(S(=O)(=O)c3cccc(Cl)c3Cl)cc12 (stereo not drawn) [Example 101] | 210 to 212 °C | < 500 nM |  | 
10 | CC12CCNCC1Oc1ccc(S(=O)(=O)c3cccc(Cl)c3Cl)cc12 (stereo not drawn) [Example 105] | 242 to 244 °C | < 500 nM |  | 
11 | CC12CCNCC1Oc1ccc(S(=O)(=O)c3cccc(Cl)c3)cc12 (stereo not drawn) [Example 104] | 216 to 218 °C | > 1000 nM |  | 
12 | CC12CCNCC1Oc1ccc(S(=O)(=O)c3ccccc3CO)cc12 (stereo not drawn) [Example 97] | 204 to 206 °C | > 1000 nM |  | 
13 | CC12CCNCC1Oc1ccc(S(=O)(=O)c3cc(F)cc(F)c3)cc12 (stereo not drawn) [Example 94] | 196 to 198 °C | < 500 nM |  | 
14 | CC12CCNCC1Oc1ccc(S(=O)(=O)c3cccc(Cl)c3)cc12 (stereo not drawn) [Example 103] | 218 to 220 °C | < 500 nM |  | 

More lines, main results first:

Row | melting point | Ki (human 5-HT6 receptor) | SMILES | non-REM (NREM) sleep (rats [1]) | antinociceptive effect (rats [2])
15 | 188 to 189 °C | < 500 nM | O=S(=O)(c1ccc2c(c1)OC1CNCCC21)c1nc2ccccc2[nH]1 (stereo not drawn) [Example 69] |  | 
16 | 208 to 212 °C | > 1000 nM | C[C@@H]1CCCN1CCCOc1cc(F)cc(S(=O)(=O)c2ccc3c(c2)OC2CNCCC32)c1 (single isomer, unassigned) [Example 626] |  | 
17 | 246 to 247 °C | < 500 nM | COc1cc(OC(C)C)cc(S(=O)(=O)c2ccc3c4c(oc3c2)CNCC4(C)C)c1 [Example 85] |  | 
18 | 291 to 293 °C | < 500 nM | CC1(C)CNCc2oc3cc(S(=O)(=O)c4cccc(F)c4)ccc3c21 [Example 86] |  | 
19 | > 300 °C | > 1000 nM | O=S(=O)(c1cccc(-n2cnnn2)c1)c1ccc2c(c1)OC1CNCCC21 (stereo not drawn) [Example 75] |  | 
20 | 224 to 225 °C | < 500 nM | Cn1ccc2cccc(S(=O)(=O)c3ccc4c5c(oc4c3)CNCC5)c21 [Example 84] |  | 
21 | 258 to 259 °C | < 500 nM | Cc1c(Cl)cccc1S(=O)(=O)c1ccc2c3c(oc2c1)CNCC3 [Example 82] |  | 
22 | 238 to 240 °C | < 500 nM | O=S(=O)(c1cccc(OCc2ccccc2)c1)c1ccc2c(c1)OC1CNCCC21 (stereo not drawn) [Example 74] |  | 
23 | 279 to 281 °C | < 500 nM | O=S(=O)(c1cccc(O)c1)c1ccc2c3c(oc2c1)CNCC3 [Example 627, 3-(1,2,3,4-Tetrahydro-benzo[4,5]furo[2,3-c]pyridine-7-sulfonyl)-phenol] |  | 
24 | 164 to 165 °C | < 500 nM | Cn1ccc2c(S(=O)(=O)c3ccc4c(c3)OC3CNCCC43)cccc21 (stereo not drawn) [Example 68] |  | 
25 | > 300 °C | < 500 nM | CC1CNCc2oc3cc(S(=O)(=O)c4cccc(F)c4)ccc3c21 (stereo not drawn) [Example 102] |  | 
26 | 197 to 204 °C | < 500 nM | COc1cc2c(cc1S(=O)(=O)c1cccc(F)c1)C1CCNCC1O2 (stereo not drawn) [Example 89] |  | 
27 | 189 to 190 °C | > 1000 nM | O=S(=O)(c1ccc2c(c1)OC1CNCCC21)c1cccc2nonc12 (stereo not drawn) [Example 72] |  | 
28 | 242 to 243 °C | < 500 nM | O=S(=O)(c1ccc2c3c(oc2c1)CNCC3)c1cccc2nsnc12 [Example 83] |  | 
